Data set [1] concerns Pharbitis purpurea. In words: greenhouse experiment, post-emergence treatment, herbicidal activity. The format is in vivo. The conditions noted are these: application rate 1.0 kg/ha. From the text: (§1) The seeds of the test plants were sown separately for each species. For the post-emergence treatment, the test plants were first grown to a height of from 3 to 15 cm, depending on the plant habit, and only then treated with the active compounds which had been suspended or emulsified in water. The test plants were for this purpose either sown directly and grown in the same containers, or they were first grown separately as seedlings and transplanted into the test containers a few days prior to treatment. The application rate for the post-emergence treatment was 0.5 or 1.0 kg of a.s. (active substance)/ha. Depending on the species, the plants were kept at from 10 to 25° C. or from 20 to 35° C. The test period extended over 2 to 4 weeks. During this time, the plants were tended, and their response to the individual treatments was evaluated. Evaluation was carried out using a scale from 0 to 100. 100 means no emergence of the plants, or complete destruction of at least the above-ground parts, and 0 means no damage, or normal course of growth. The plants used in the greenhouse experiments were of the following species: [table]

The test system of data set [2] is Setaria faberii. The data set is described as above. The format is in vivo. The conditions noted are these: application rate 1.0 kg/ha.
Source text: as §1

The test system of data set [3] is Setaria faberii. In words: greenhouse experiment, pre-emergence treatment, herbicidal activity. The conditions noted are these: application rate 1.0 kg/ha. The format is in vivo. An excerpt:
(§2) The seeds of the test plants were sown separately for each species. For the pre-emergence treatment, directly after sowing the active compounds, which had been suspended or emulsified in water, were applied by means of finely distributing nozzles. The containers were irrigated gently to promote germination and growth and subsequently covered with transparent plastic hoods until the plant had rooted. This cover caused uniform germination of the test plants, unless this was adversely affected by the active compounds. The application rate for a pre-emergence treatment was 0.5 or 1.0 kg of a.s. (active substance)/ha. Depending on the species, the plants were kept at from 10 to 25° C. or from 20 to 35° C. The test period extended over 2 to 4 weeks. During this time, the plants were tended, and their response to the individual treatments was evaluated. Evaluation was carried out using a scale from 0 to 100. 100 means no emergence of the plants, or complete destruction of at least the above-ground parts, and 0 means no damage, or normal course of growth. The plants used in the greenhouse experiments were of the following species: [table]

In data set [4] the test system is Amaranthus retroflexus. Described as above. The conditions noted are these: application rate 1.0 kg/ha. The format is in vivo.
Source text: as §2

The subject of data set [5] is Digitaria sanguinalis. The description is as above. The format is in vivo. The conditions noted are these: application rate 1.0 kg/ha.
Source text: as §2

This is an account of results in patent US20050054536A1, “Beta-amino-alpha-cyanoacrylates and their use as herbicides” (priority 2001, published 2005).

Consider `CCC(CC)/C(N)=C(\C#N)C(=O)OC` [Example 2.5], for which the melting point was 65 °C.

With `CCOC(=O)/C(C#N)=C(\N)C(C)(C)Br` [Example 2.10], the melting point turned out to be 46 °C. As to `CCOC(=O)/C(C#N)=C(\N)C(CC)CC` [Example 2.1, Ethyl (2Z)-3-amino-2-cyano-4-ethyl-2-hexenoate], the melting point lay in the range of 85 to 87 °C. Further, the “post-emergence activity against the undesirable plant Pharbitis purpurea” value in data set [1] was “very good”. For the same compound, in data set [2], the “post-emergence activity against the undesirable plant Setaria faberii” value is listed as “very good”. In addition, in data set [3], the “effect on the harmful plant Setaria faberii, pre-emergence method” value was “very good”. In addition, the “effect on the harmful plant Amaranthus retroflexus, pre-emergence method” value in data set [4] was “very good”.

Consider `CCOC(=O)/C(C#N)=C(\N)C(C)CC` (stereo not shown) [Example 2.6], for which the melting point lay within 102 to 103 °C. `CCCOC(=O)/C(C#N)=C(\N)C(CC)CC` [Example 2.2, n-Propyl (2Z)-3-amino-2-cyano-4-ethyl-2-hexenoate]: the melting point came to 84 °C. Moreover, the “post-emergence activity against the undesirable plant Pharbitis purpurea” value in data set [1] is recorded as “very good”. In data set [3], the “effect on the harmful plant Setaria faberii, pre-emergence method” value is on record as “very good”. In addition, the “effect on the harmful plant Digitaria sanguinalis, pre-emergence method” value in data set [5] is given as “very good”. `CCOC(=O)/C(C#N)=C(\N)C(C)(C)CC` [Example 2.8]: the melting point is 65 to 67 °C.

For `CCCOC(=O)/C(C#N)=C(\N)C(CC)CSC` (stereo not shown) [Example 2.3, n-Propyl (2Z)-3-amino-2-cyano-4-[(methylsulfanyl)methyl]-2-hexenoate], the melting point worked out at 78 °C. `CCC(CC)/C(N)=C(\C#N)C(=O)OCCOC` [Example 2.22] returned a melting point of 70 °C. Besides, the “post-emergence activity against the undesirable plant Pharbitis purpurea” value in data set [1] is on record as “very good”. For the same compound, the “effect on the harmful plant Setaria faberii, pre-emergence method” value in data set [3] is recorded as “very good”.

Turning to `CCOCCOC(=O)/C(C#N)=C(\N)C(CC)CC` [Example 2.23], the melting point worked out at 70 °C. Consider `CCOC(=O)/C(C#N)=C(\N)C(C)(C)Cl` [Example 2.9], for which the melting point is 56 °C.

In general, melting point refers to the temperature, or range, at which the solid turns liquid.
